Where a SMILES comes first, the peptide text is derived from it. [ ]: non-standard residue; d: D form. The star is where a group is joined. NHCH2CH2OH = OCCN*; For = O=C*
Experiments:
[1] = cell viability/%
Procedure, shortened: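 P388 cells at 1 × 10^4 cells/mL (final) were exposed to library peptides (stocks diluted 250-fold in RPMI1640/10% FBS) for 92 h at 37 °C, 5% CO2. Viable cells were counted by WST-1/1-methoxy PMS (4 h), absorbance 415 nm, and expressed as cell viability (%).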

[2] = system: Streptococcus pyogenes SSI-9; experiment: Antibacterial activity assay of bead-derived peptides (three concentrations); assay type: cell-based; set-up: key: +++: inhibition by the 640-fold diluted peptide solution; ++: inhibition by the 160-fold diluted solution; +: inhibition by the 40-fold diluted solution; -: no inhibition; details: S. pyogenes, bead-derived peptide solution, three concentrations
Procedure, shortened: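 Undiluted, 4-fold and 16-fold DMSO-diluted peptide stocks; S. pyogenes SSI-9, 2 × 10^5 CFU, cation-adjusted MHB (50 mg/L Ca2+, 25 mg/L Mg2+) + 5% laked horse blood; 37 °C, 18 h; readout = cell pellet visible or not.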

[3] = H+/Na+ transport assay of bead-derived peptides (one-point); assay type: biochemical; set-up: key: relative activity; mean of two control wells = 1.00; details: bead-derived peptide solution, EYPC/EYPG LUVs;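 note: relative to parent gramicidin A activity set to 1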
Procedure, shortened: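 H+/Na+ transport is monitored through pyranine fluorescence in freshly extruded LUVs after a 30-min room-temperature vortex with each library peptide at a single concentration. Signals are normalized to detergent (Triton X-100) and untreated controls.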

Row | SMILES | viability [1] [%] | antibacterial activity [2] | H+/Na+ transport activity normalized against the value of 1 (1.00) [3]
1 | CC(C)C[C@@H](NC(=O)[C@H](C)NC(=O)CNC(=O)[C@@H](NC=O)C(C)C)C(=O)N[C@@H](C)C(=O)N[C@@H](C(=O)N[C@H](C(=O)N[C@H](CC(C)C)C(=O)N[C@@H](Cc1c[nH]c2ccccc12)C(=O)N[C@@H](C(=O)N[C@@H](Cc1c[nH]c2ccccc12)C(=O)N[C@H](CC(C)C)C(=O)N[C@@H](Cc1c[nH]c2ccccc12)C(=O)N[C@@H](C(=O)N[C@@H](Cc1c[nH]c2ccccc12)C(=O)NCCO)C(C)C)[C@H](C)O)C(C)C)C(C)C [compound 1253] (For-VGA[dL]A[dV]V[dL]W[dT]W[dL]W[dV]W-NHCH2CH2OH) | 58.1 | - | 1.03
2 | CC(C)C[C@@H](NC(=O)[C@H](C)NC(=O)CNC(=O)[C@@H](NC=O)C(C)C)C(=O)N[C@@H](C)C(=O)N[C@@H](C(=O)N[C@H](C(=O)N[C@@H](C(=O)N[C@@H](Cc1c[nH]c2ccccc12)C(=O)N[C@H](CC(C)C)C(=O)N[C@@H](Cc1c[nH]c2ccccc12)C(=O)N[C@H](CC(C)C)C(=O)N[C@@H](Cc1c[nH]c2ccccc12)C(=O)N[C@@H](C(=O)N[C@@H](Cc1c[nH]c2ccccc12)C(=O)NCCO)C(C)C)C(C)C)C(C)C)[C@H](C)O [compound 13002] (For-VGA[dL]A[dT]V[dV]W[dL]W[dL]W[dV]W-NHCH2CH2OH) | 98.3 | - | 1.33
3 | CC(C)C[C@@H](NC(=O)[C@H](C)NC(=O)CNC(=O)[C@@H](NC=O)C(C)C)C(=O)N[C@@H](C)C(=O)N[C@@H](C(=O)N[C@H](C(=O)N[C@@H](C(=O)N[C@@H](Cc1c[nH]c2ccccc12)C(=O)N[C@@H](C(=O)N[C@@H](Cc1c[nH]c2ccccc12)C(=O)N[C@@H](C(=O)N[C@@H](Cc1c[nH]c2ccccc12)C(=O)N[C@@H](C(=O)N[C@@H](Cc1c[nH]c2ccccc12)C(=O)NCCO)C(C)C)C(C)C)C(C)C)[C@H](C)O)C(C)C)C(C)C [compound 1520] (For-VGA[dL]A[dV]V[dT]W[dV]W[dV]W[dV]W-NHCH2CH2OH) | 100 | - | 1.04
4 | CC(C)C[C@@H](NC(=O)[C@H](C)NC(=O)[C@H](NC(=O)[C@H](C)NC(=O)CNC(=O)[C@@H](NC=O)C(C)C)C(C)C)C(=O)N[C@H](C(=O)N[C@@H](C(=O)N[C@@H](Cc1c[nH]c2ccccc12)C(=O)N[C@H](CC(C)C)C(=O)N[C@@H](Cc1c[nH]c2ccccc12)C(=O)N[C@H](CC(C)C)C(=O)N[C@@H](Cc1c[nH]c2ccccc12)C(=O)N[C@H](CC(C)C)C(=O)N[C@@H](Cc1c[nH]c2ccccc12)C(=O)NCCO)[C@H](C)O)C(C)C [compound 3956] (For-VGA[dV]A[dL]V[dT]W[dL]W[dL]W[dL]W-NHCH2CH2OH) | 100 | + | 1.12
5 | CNC(=O)C[C@@H](NC(=O)[C@H](Cc1c[nH]c2ccccc12)NC(=O)[C@H](NC(=O)[C@H](Cc1c[nH]c2ccccc12)NC(=O)[C@@H](CC(C)C)NC(=O)[C@H](Cc1c[nH]c2ccccc12)NC(=O)[C@@H](CC(C)C)NC(=O)[C@@H](NC(=O)[C@H](NC(=O)[C@H](C)NC(=O)[C@H](NC(=O)[C@H](C)NC(=O)CNC(=O)[C@@H](NC=O)C(C)C)C(C)C)C(C)C)C(C)C)C(C)C)C(=O)N[C@@H](Cc1c[nH]c2ccccc12)C(=O)NCCO [compound 3903] (For-VGA[dV]A[dV]V[dL]W[dL]W[dV]W[dD](NHMe)W-NHCH2CH2OH) | 100 | - | 1.10
6 | CC(C)C[C@@H](NC(=O)[C@H](Cc1c[nH]c2ccccc12)NC(=O)[C@H](NC(=O)[C@H](Cc1c[nH]c2ccccc12)NC(=O)[C@H](NC(=O)[C@@H](NC(=O)[C@H](NC(=O)[C@H](C)NC(=O)[C@H](NC(=O)[C@H](C)NC(=O)CNC(=O)[C@@H](NC=O)C(C)C)[C@H](C)O)C(C)C)C(C)C)C(C)C)[C@H](C)O)C(=O)N[C@@H](Cc1c[nH]c2ccccc12)C(=O)N[C@@H](C(=O)N[C@@H](Cc1c[nH]c2ccccc12)C(=O)NCCO)C(C)C [compound 12629] (For-VGA[dT]A[dV]V[dV]W[dT]W[dL]W[dV]W-NHCH2CH2OH) | 100 | - | 1.01
7 | CC(C)C[C@@H](NC(=O)[C@H](C)NC(=O)CNC(=O)[C@@H](NC=O)C(C)C)C(=O)N[C@@H](C)C(=O)N[C@H](CC(C)C)C(=O)N[C@H](C(=O)N[C@H](CC(C)C)C(=O)N[C@@H](Cc1c[nH]c2ccccc12)C(=O)N[C@H](CC(C)C)C(=O)N[C@@H](Cc1c[nH]c2ccccc12)C(=O)N[C@H](CC(C)C)C(=O)N[C@@H](Cc1c[nH]c2ccccc12)C(=O)N[C@@H](C(=O)N[C@@H](Cc1c[nH]c2ccccc12)C(=O)NCCO)[C@H](C)O)C(C)C [compound 5006] (For-VGA[dL]A[dL]V[dL]W[dL]W[dL]W[dT]W-NHCH2CH2OH) | 100 | - | 1.12
8 | CC(C)C[C@@H](NC(=O)[C@H](C)NC(=O)CNC(=O)[C@@H](NC=O)C(C)C)C(=O)N[C@@H](C)C(=O)N[C@@H](C(=O)N[C@H](C(=O)N[C@@H](C(=O)N[C@@H](Cc1c[nH]c2ccccc12)C(=O)N[C@H](CC(C)C)C(=O)N[C@@H](Cc1c[nH]c2ccccc12)C(=O)N[C@@H](C(=O)N[C@@H](Cc1c[nH]c2ccccc12)C(=O)N[C@H](CC(C)C)C(=O)N[C@@H](Cc1c[nH]c2ccccc12)C(=O)NCCO)C(C)C)[C@H](C)O)C(C)C)C(C)C [compound 1711] (For-VGA[dL]A[dV]V[dT]W[dL]W[dV]W[dL]W-NHCH2CH2OH) | 100 | - | 1.01
9 | CNC(=O)C[C@@H](NC(=O)[C@H](Cc1c[nH]c2ccccc12)NC(=O)[C@H](NC(=O)[C@H](Cc1c[nH]c2ccccc12)NC(=O)[C@H](NC(=O)[C@H](Cc1c[nH]c2ccccc12)NC(=O)[C@H](NC(=O)[C@@H](NC(=O)[C@@H](CC(C)C)NC(=O)[C@H](C)NC(=O)[C@H](NC(=O)[C@H](C)NC(=O)CNC(=O)[C@@H](NC=O)C(C)C)C(C)C)C(C)C)C(C)C)C(C)C)C(C)C)C(=O)N[C@@H](Cc1c[nH]c2ccccc12)C(=O)NCCO [compound 2911] (For-VGA[dV]A[dL]V[dV]W[dV]W[dV]W[dD](NHMe)W-NHCH2CH2OH) | 100 | - | 1.16
10 | CNC(=O)C[C@@H](NC(=O)[C@H](C)NC(=O)[C@@H](CC(C)C)NC(=O)[C@H](C)NC(=O)CNC(=O)[C@@H](NC=O)C(C)C)C(=O)N[C@H](C(=O)N[C@@H](C(=O)N[C@@H](Cc1c[nH]c2ccccc12)C(=O)N[C@H](CC(C)C)C(=O)N[C@@H](Cc1c[nH]c2ccccc12)C(=O)N[C@H](CC(C)C)C(=O)N[C@@H](Cc1c[nH]c2ccccc12)C(=O)N[C@@H](C(=O)N[C@@H](Cc1c[nH]c2ccccc12)C(=O)NCCO)C(C)C)C(C)C)C(C)C [compound 346] (For-VGA[dL]A[dD](NHMe)V[dV]W[dL]W[dL]W[dV]W-NHCH2CH2OH) | 100 | - | 1.12
11 | CC(C)C[C@@H](NC(=O)[C@H](C)NC(=O)CNC(=O)[C@@H](NC=O)C(C)C)C(=O)N[C@@H](C)C(=O)N[C@@H](C(=O)N[C@H](C(=O)N[C@H](CC(C)C)C(=O)N[C@@H](Cc1c[nH]c2ccccc12)C(=O)N[C@@H](C(=O)N[C@@H](Cc1c[nH]c2ccccc12)C(=O)N[C@H](CC(C)C)C(=O)N[C@@H](Cc1c[nH]c2ccccc12)C(=O)N[C@H](CC(C)C)C(=O)N[C@@H](Cc1c[nH]c2ccccc12)C(=O)NCCO)C(C)C)C(C)C)[C@H](C)O [compound 611] (For-VGA[dL]A[dT]V[dL]W[dV]W[dL]W[dL]W-NHCH2CH2OH) | 100 | - | 1.05
12 | CC(C)C[C@@H](NC(=O)[C@H](C)NC(=O)CNC(=O)[C@@H](NC=O)C(C)C)C(=O)N[C@@H](C)C(=O)N[C@@H](C(=O)N[C@H](C(=O)N[C@H](CC(C)C)C(=O)N[C@@H](Cc1c[nH]c2ccccc12)C(=O)N[C@H](CC(C)C)C(=O)N[C@@H](Cc1c[nH]c2ccccc12)C(=O)N[C@@H](C(=O)N[C@@H](Cc1c[nH]c2ccccc12)C(=O)N[C@@H](C(=O)N[C@@H](Cc1c[nH]c2ccccc12)C(=O)NCCO)[C@H](C)O)C(C)C)C(C)C)[C@H](C)O [compound 113] (For-VGA[dL]A[dT]V[dL]W[dL]W[dV]W[dT]W-NHCH2CH2OH) | 100 | - | 1.00
13 | CNC(=O)C[C@@H](NC(=O)[C@H](C)NC(=O)[C@@H](CC(C)C)NC(=O)[C@H](C)NC(=O)CNC(=O)[C@@H](NC=O)C(C)C)C(=O)N[C@H](C(=O)N[C@@H](C(=O)N[C@@H](Cc1c[nH]c2ccccc12)C(=O)N[C@H](CC(C)C)C(=O)N[C@@H](Cc1c[nH]c2ccccc12)C(=O)N[C@@H](C(=O)N[C@@H](Cc1c[nH]c2ccccc12)C(=O)N[C@@H](C(=O)N[C@@H](Cc1c[nH]c2ccccc12)C(=O)NCCO)C(C)C)C(C)C)C(C)C)C(C)C [compound 11290] (For-VGA[dL]A[dD](NHMe)V[dV]W[dL]W[dV]W[dV]W-NHCH2CH2OH) | 87.6 | - | 1.47

From PMC7531004, “Discovery of gramicidin A analogues with altered activities by multidimensional screening of a one-bead-one-compound library” (Nature Communications, 2020)
